# Results as given in US9572820B2, “Methods of treating autophagy-associated disorders and related pharmaceutical compositions, diagnostics, screening techniques and kits” (priority 2011, dated 2017).
# Legend:
# IL-1β = IL-1β secretion from LPS-pretreated BMMs (ELISA); assay type: cell-based, murine; conditions: nigericin, 100 nM bafilomycin A1, 1 h
# Method: FIG. 1X3. induction of autophagy enhances IL-1β secretion. (A) Atg5fl/fl Cre^− and Atg^5fl/fl Cre^+ bone marrow-derived macrophages (BMMs), pretreated overnight with 100 ng/ml LPS, were stimulated for 1 h with the inflammasome agonist nigericin ([…]) with (Starvation; EBSS) or without (Full; full medium) autophagic induction. Cell culture supernatants were assayed for murine IL-1β by ELISA. Data represent mean values±s.d. (nX3); *Po0.05. (B) LPS-pretreated Atg5fl/fl Cre^− and Atg^5fl/fl Cre^+ BMMs were stimulated with […] nigericin for 1 h in OptiMEM and the release of active caspase-1 and IL-1β was determined by immunoblotting. (C) As in (A), assayed for IL-18. Data represent mean values±s.d. (nX3); *Po0.05. (D) LPS-pretreated BMMs were exposed to alum ([…]) for 1 h with or without autophagic induction by starvation. Secreted IL-1β was measured as in (A). Data represent mean values±s.d. (nX3); *Po0.05. (E) LPS-pretreated BMMs were exposed to silica ([…]) for 1 h with or without autophagic induction by starvation. Secreted IL-1β was measured as in (A). Data represent mean values±s.d. (nX3); *Po0.05. (F) BMMs were transfected with scramble (Scr) control siRNA or siRNAs against ASC and NLRP3. After 48 h following transfection, cells were treated overnight with LPS and subjected to nigericin ([…]) and starvation for 1 h. Data represent mean values±s.d. (nX3); *Po0.05. (G) Immunoblot analysis of ASC and NLRP3 knockdowns. (H) BMMs were transfected with scramble
# FIG. 2X3 Autophagic pathway progression promotes secretion of inflammasome substrates. (A, B) LPS-pretreated BMMs were treated with […] nigericin (Nig) and 100 nM bafilomycin A1 (Baf) with (Starvation) or without (Full) autophagic induction for 1 h and secreted IL-1β (A) and IL-18 (B) were measured. Data represent mean values+s.d. (nX3); *Po0.05. (C) LPS-pretreated BMMs were treated with […] of silica and 100 nM bafilomycin A1 (Baf) with (Starvation) or without (Full) autophagic induction for 1 h and secreted IL-1β were measured. Data represent mean values±s.d. (nX3); *Po0.05. (D) Colocalization of cathepsin B with the basal autophagic machinery factor LC3 and IL-1b. Fluorescence; LC3 (green, Alexa488), IL-1β (red, Alexa568), and cathepsin B (blue, Alexa633). BMMs from GFP-LC3 knockin mice were treated with LPS and then analysed for immunofluorescence. (E) Colocalization line tracing analysis from images in (D). (F) LPS-pretreated BMMs were treated with […] nigericin and cathepsin B inhibitor CA-074 Me […] , with (Starvation) or without (Full) autophagic induction, for 1 h and secreted IL-1β was measured. […] (G) LPS-pretreated Atg^5fl/fl Cr^+ and Atg^5fl/fl Cre^− BMMs were stimulated with […] nigericin for 1 h in OptiMEM and release of cathepsin B was determined by immunoblotting. […]
# pro-IL-1β = test: Expression of pro-IL-1β in BMMs; assay type: cell-based, murine; conditions: cells treated with bafilomycin A1 or CA-074 Me
# Method: To induce pro-IL-1β expression, cells were pretreated overnight with 100 ng/ml LPS (Sigma). Inflammasome was induced with […] nigericin (Sigma) for 1 h or with […] Alum (Thermoscientific) for 1 h or with […] silica crystals (MIN-U-SIL-15, US Silica) for 1 h or with […] Amyloid-b peptide (Ab; American Peptide Company) fibrils prepared as described (Moore et al, 2002). […] Starvation and other treatments (except for macrophage priming with LPS done in advance) were carried out concurrently (i.e., initiated at the same time).
# For all conditions, cell-free supernatants were assayed by immunoblotting after TCA precipitation for mouse IL-1β p17 (R&D), caspase-1 p10 (Santa Cruz Biotechnology), HMGB1 (Abcam) and Cathepsin B (R&D) or by ELISA for mouse IL-1β (R&D), IL-18 (MBL), and HMGB1 (IBL). Immunofluorescence confocal microscopy was carried out using a Zeiss LSM 510 Meta microscope (laser wavelengths 488, 543, and 633 nm). Antibodies against endogenous proteins IL-1β (Abcam), Sec6 (Shu C Hsu, Rutgers University, NJ, USA), Cathepsin B (R&D), Rab8a (Abcam), GORASP1 (Novus), GORASP2 (ProteinTech Group), GM130 (BD), LC3 (MBL) and GFP (Abcam; for BMMs from GFP-LC3 knock-in transgenic mice) were used for indirect immunofluorescence analysis. […]
smiles,measurement,setting,value
CO/C1=C\C(C)=C\[C@@H](C)[C@@H](O)[C@@H](C)C/C(C)=C/C=C/[C@H](OC)[C@@H]([C@@H](C)[C@@H](O)[C@H](C)[C@@]2(O)C[C@@H](O)[C@H](C)[C@@H](C(C)C)O2)OC1=O [bafilomycin A1],IL-1β secretion,IL-1β; basal autophagy only (full medium),no change
same,IL-1β secretion,IL-1β; starvation,decreased IL-1β secretion
same,expression of pro-IL-1β,pro-IL-1β,No differences
